According to patent US11945822B2, “Pyrazolo-triazine and/or pyrazolo-pxrimidine derivatives as selective inhibitor of cyclin dependent kinase” (QURIENT CO., LTD., priority 2018, dated 2024):

Assays:
CDK7/Cyclin H/MNAT1 = target: T1, CDK7/Cyclin H/MNAT1 (Homo sapiens, UniProt P50613); test: Enzymatic assay for CDK7 (FRET based LANCE Ultra kinase assay); type: biochemical; conditions: for IC50: read-out: CDK7 enzymatic activity (IC50 range)
T1 construct: purchased Invitrogen PR6749B
Method in brief: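 LANCE Ultra TR-FRET kinase assay using a ULight-labeled peptide substrate and a Eu-labeled anti-phospho antibody, with ATP at its Km. Purified CDK/cyclin complex was added to compound after brief centrifugation.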

H460 = test: Cellular H460 viability assay (CellTiter-Glo, 72 hours); type: cell-based; conditions: Homo sapiens, NCI-H460
Method in brief: (§1)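 Cells were plated at line-specific densities and exposed to compound for 72 hours at 37 °C, 5% CO2, with DMSO-only wells as control (final DMSO below 0.1%). Viability was measured by CellTiter-Glo luminescence in duplicate.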

CDK1/Cyclin B = target: T2, CDK1/Cyclin B (Homo sapiens, UniProt P06493); test: Enzymatic assay for CDK1 (FRET based LANCE Ultra kinase assay); type: biochemical; conditions: read-out: CDK1 enzymatic activity (IC50 range)
T2 construct: purchased Invitrogen PR4768C
T2 sequence (P06493 whole entry): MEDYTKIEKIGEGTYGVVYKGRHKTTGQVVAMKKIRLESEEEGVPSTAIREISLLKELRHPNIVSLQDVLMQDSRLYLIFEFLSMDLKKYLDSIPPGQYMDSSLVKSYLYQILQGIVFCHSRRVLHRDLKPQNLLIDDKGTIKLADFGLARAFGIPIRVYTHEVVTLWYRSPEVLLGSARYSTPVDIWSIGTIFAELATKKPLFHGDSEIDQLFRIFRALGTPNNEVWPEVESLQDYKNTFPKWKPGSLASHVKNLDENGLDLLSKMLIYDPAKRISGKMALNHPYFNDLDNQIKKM
T2 sequence (P14635 whole entry partner): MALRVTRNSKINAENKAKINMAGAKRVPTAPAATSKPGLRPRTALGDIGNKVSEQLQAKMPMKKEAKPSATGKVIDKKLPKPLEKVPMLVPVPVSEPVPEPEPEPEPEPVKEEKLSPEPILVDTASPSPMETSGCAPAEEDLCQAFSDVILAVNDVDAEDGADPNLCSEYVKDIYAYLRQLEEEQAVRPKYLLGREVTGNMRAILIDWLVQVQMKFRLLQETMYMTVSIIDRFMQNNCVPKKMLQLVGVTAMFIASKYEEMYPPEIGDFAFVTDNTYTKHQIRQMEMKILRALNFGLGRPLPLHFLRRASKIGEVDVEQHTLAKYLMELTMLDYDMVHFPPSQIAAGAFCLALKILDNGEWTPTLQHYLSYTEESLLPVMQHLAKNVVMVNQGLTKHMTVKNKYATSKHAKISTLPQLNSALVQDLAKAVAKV
Method in brief: (§2)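 TR-FRET (LANCE Ultra) kinase assay at ATP Km, ULight-MBP peptide substrate (68 nM), 8-dose 4-fold compound series in DMSO. Enzymes: […]; 60 min at 23° C., stopped with EDTA plus Eu-anti-phospho-MBP antibody, read 665/615 nm after 60 min.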

CDK5/p25 = target: T3, CDK5/p25 (Homo sapiens, UniProt Q00535); test: Enzymatic assay for CDK5 (FRET based LANCE Ultra kinase assay); type: biochemical; conditions: read-out: CDK5 enzymatic activity (IC50 range)
T3 construct: purchased Invitrogen PR8543B
T3 sequence (Q00535 whole entry): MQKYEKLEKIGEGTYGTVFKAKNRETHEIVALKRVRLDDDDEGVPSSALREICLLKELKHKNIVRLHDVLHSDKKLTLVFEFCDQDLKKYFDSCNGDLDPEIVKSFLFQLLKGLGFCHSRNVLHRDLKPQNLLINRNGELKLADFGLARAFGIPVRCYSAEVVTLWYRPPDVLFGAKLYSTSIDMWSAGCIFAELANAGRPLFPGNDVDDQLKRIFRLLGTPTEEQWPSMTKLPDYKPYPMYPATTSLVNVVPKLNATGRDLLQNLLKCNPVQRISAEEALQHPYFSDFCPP
T3 sequence (Q15078 99-307 partner limits assumed): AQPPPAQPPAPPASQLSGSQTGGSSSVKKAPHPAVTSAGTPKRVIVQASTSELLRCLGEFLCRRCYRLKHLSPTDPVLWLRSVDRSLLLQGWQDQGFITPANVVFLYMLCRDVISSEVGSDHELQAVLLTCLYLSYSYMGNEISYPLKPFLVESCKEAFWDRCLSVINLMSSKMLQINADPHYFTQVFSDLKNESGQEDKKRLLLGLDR
Method in brief: as §2

MOLT-4 = test: Cellular MOLT-4 viability assay (CellTiter-Glo, 72 hours); type: cell-based; conditions: Homo sapiens, MOLT4 viability assay
Method in brief: as §1

CDK2/Cyclin A = target: T4, CDK2/Cyclin A (Homo sapiens, UniProt P24941); test: Enzymatic assay for CDK2 (FRET based LANCE Ultra kinase assay); type: biochemical; conditions: read-out: CDK2 enzymatic activity (IC50 range)
T4 construct: purchased Invitrogen PV6290
Method in brief: as §2

RPMI-8226 = test: Cellular RPMI-8226 viability assay (CellTiter-Glo, 72 hours); type: cell-based; conditions: Homo sapiens
Protocol: All cell lines were routinely tested for mycoplasma.
The effect of the CDK7 inhibitor to inhibit the growth of target cancer cells was evaluated through the 72 hours time period of viability assay. Briefly, the candidate cell line ware plated in 96 well plate at the following density of cells respectively. […] DMSO solvent without compound served as a control and final DMSO concentration less than 0.1%. After 72 hours of incubation at 37° C., 5% CO2 incubator, cells were analyzed for the viability using the CellTiter-Glo Luminescent Cell Viability Assay (Promega, Cat #G7570). All viability assays were performed in duplicate and Luminescence was read using an Envision (Perkin Elmer, USA). Data was analyzed using XLfit software.

MV4-11 = test: Cellular MV4-11 viability assay (CellTiter-Glo, 72 hours); type: cell-based; conditions: Homo sapiens
Method in brief: as §1

HCT116 = test: Cellular HCT116 viability assay (CellTiter-Glo, 72 hours); type: cell-based; conditions: Homo sapiens, HCT-116
Method in brief: as §1

T1 sequence (P50613 whole entry): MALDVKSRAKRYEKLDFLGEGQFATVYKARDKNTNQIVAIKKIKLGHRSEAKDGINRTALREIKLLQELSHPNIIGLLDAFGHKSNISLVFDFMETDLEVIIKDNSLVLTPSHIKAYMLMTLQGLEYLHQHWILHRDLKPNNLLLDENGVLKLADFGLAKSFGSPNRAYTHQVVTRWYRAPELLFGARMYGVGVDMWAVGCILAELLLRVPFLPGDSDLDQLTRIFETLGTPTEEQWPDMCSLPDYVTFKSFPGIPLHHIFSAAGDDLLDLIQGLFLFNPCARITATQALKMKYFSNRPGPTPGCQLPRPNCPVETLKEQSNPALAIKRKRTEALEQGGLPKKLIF
T1 sequence (P51946 whole entry partner): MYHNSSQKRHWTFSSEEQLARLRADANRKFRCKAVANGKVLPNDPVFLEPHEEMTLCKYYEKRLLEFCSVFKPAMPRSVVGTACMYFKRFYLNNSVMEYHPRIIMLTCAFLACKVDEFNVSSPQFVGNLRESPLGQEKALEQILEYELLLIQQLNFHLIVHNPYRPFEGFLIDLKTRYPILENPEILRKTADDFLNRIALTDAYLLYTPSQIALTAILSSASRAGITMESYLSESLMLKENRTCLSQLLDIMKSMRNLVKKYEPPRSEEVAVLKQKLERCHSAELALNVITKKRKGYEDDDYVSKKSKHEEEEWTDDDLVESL
T1 sequence (P51948 whole entry partner): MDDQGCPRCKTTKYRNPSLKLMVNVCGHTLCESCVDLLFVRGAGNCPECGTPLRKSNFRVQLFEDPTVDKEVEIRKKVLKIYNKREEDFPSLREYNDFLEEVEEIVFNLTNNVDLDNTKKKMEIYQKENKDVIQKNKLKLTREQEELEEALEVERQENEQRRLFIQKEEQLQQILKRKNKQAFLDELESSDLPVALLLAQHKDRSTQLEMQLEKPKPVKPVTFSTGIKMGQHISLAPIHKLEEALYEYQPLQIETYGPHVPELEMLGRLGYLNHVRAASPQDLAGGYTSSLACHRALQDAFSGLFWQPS

Compound	IC50 (CDK7/Cyclin H/MNAT1) [nM]	IC50 (H460) [nM]	IC50 (CDK1/Cyclin B) [nM]	IC50 (CDK5/p25) [nM]	IC50 (MOLT-4) [nM]	IC50 (CDK2/Cyclin A) [nM]	IC50 (RPMI-8226) [nM]	IC50 (MV4-11) [nM]	IC50 (HCT116) [nM]	CDK1/CDK7: Selectivity of CDK7 inhibition over CDK1 inhibition (CDK7/Cyclin H/MNAT1)	CDK2/CDK7: Selectivity of CDK7 inhibition over CDK2 inhibition (CDK7/Cyclin H/MNAT1)	CDK5/CDK7: Selectivity of CDK7 inhibition over CDK5 inhibition (CDK7/Cyclin H/MNAT1)
CC(C)c1cnn2c(NCc3ccccc3-c3cccs3)nc(N3CCC(N)CC3)nc12 [Compound 44]	< 100	< 1000	100 to 1000	< 100	1000 to 10000	100 to 1000	< 1000			B (B=less than 200 fold, but greater than 20 fold)	B (B=less than 200 fold, but greater than 20 fold)	B (B=less than 200 fold, but greater than 20 fold)
CC(C)c1cnn2c(NCc3ccccc3Oc3ccccc3)nc(N3CCC(N)CC3)nc12 [Compound 56]	< 100	< 1000	> 1000	100 to 1000	1000 to 10000	> 1000	1000 to 10000			B (B=less than 200 fold, but greater than 20 fold)	B (B=less than 200 fold, but greater than 20 fold)	C (C=less than 20 fold)
CC(C)c1cnn2c(NCc3ccccc3-n3ncc4ccccc43)nc(N3CCC(N)CC3)nc12 [Compound 58]					1000 to 10000		1000 to 10000					
CC(C)c1cnn2c(NCc3ccccc3Nc3ccccc3)nc(N3CCC(N)CC3)nc12 [Compound 61]	< 100	< 1000	> 1000	100 to 1000	1000 to 10000	100 to 1000	1000 to 10000			B (B=less than 200 fold, but greater than 20 fold)	B (B=less than 200 fold, but greater than 20 fold)	C (C=less than 20 fold)
CC(C)c1cnn2c(NCc3ccccc3N(C)c3ccccc3)nc(N3CCC(N)CC3)nc12 [Compound 63]	< 100	< 1000	100 to 1000	100 to 1000	> 10000	100 to 1000	1000 to 10000			B (B=less than 200 fold, but greater than 20 fold)	B (B=less than 200 fold, but greater than 20 fold)	B (B=less than 200 fold, but greater than 20 fold)
CC(C)c1cnn2c(NCc3cccc4ccc(NC(=O)CCCN(C)C)nc34)nc(N3CCC(N)CC3)nc12 [Compound 95]	< 100		> 1000	100 to 1000	1000 to 10000	100 to 1000	< 1000			A (A=greater than 200 fold)	A (A=greater than 200 fold)	B (B=less than 200 fold, but greater than 20 fold)
CC(C)c1cnn2c(NCc3ccccc3-n3cc4cc(-c5ccccc5)ccc4n3)nc(N3CCC(N)CC3)nc12 [Compound 101]		1000 to 10000			1000 to 10000		1000 to 10000					
CC(C)c1cnn2c(NCc3ccccc3-c3cc4ccccc4[nH]3)nc(NC3CCOCC3)nc12 [Compound 114]	100 to 1000		> 1000	> 1000	1000 to 10000	> 1000	1000 to 10000			A (A=greater than 200 fold)	B (B=less than 200 fold, but greater than 20 fold)	B (B=less than 200 fold, but greater than 20 fold)
CC(C)CC(=O)Nc1cccc2cc(-c3ccccc3CNc3nc(N4CCC(N)CC4)nc4c(C(C)C)cnn34)[nH]c12 [Compound 145]	< 100	< 1000	100 to 1000	< 100		100 to 1000	< 1000	< 1000	< 1000	B (B=less than 200 fold, but greater than 20 fold)	B (B=less than 200 fold, but greater than 20 fold)	C (C=less than 20 fold)

Second part, led by results:

IC50 (CDK7/Cyclin H/MNAT1) [nM]	IC50 (H460) [nM]	IC50 (CDK1/Cyclin B) [nM]	IC50 (CDK5/p25) [nM]	IC50 (MOLT-4) [nM]	IC50 (CDK2/Cyclin A) [nM]	IC50 (RPMI-8226) [nM]	IC50 (MV4-11) [nM]	IC50 (HCT116) [nM]	Compound	CDK1/CDK7: Selectivity of CDK7 inhibition over CDK1 inhibition (CDK7/Cyclin H/MNAT1)	CDK2/CDK7: Selectivity of CDK7 inhibition over CDK2 inhibition (CDK7/Cyclin H/MNAT1)	CDK5/CDK7: Selectivity of CDK7 inhibition over CDK5 inhibition (CDK7/Cyclin H/MNAT1)
< 100	< 1000	> 1000	100 to 1000	1000 to 10000	100 to 1000	1000 to 10000			CC(C)c1cnn2c(NCc3ccccc3N3CCCC3)nc(N3CCC(N)CC3)nc12 [Compound 54]	B (B=less than 200 fold, but greater than 20 fold)	B (B=less than 200 fold, but greater than 20 fold)	C (C=less than 20 fold)
	1000 to 10000			1000 to 10000		1000 to 10000			CC(C)c1cnn2c(NCc3cccc4ccc(-n5cccn5)nc34)nc(N3CCC(N)CC3)nc12 [Compound 59]			
< 100	< 1000	100 to 1000	< 100	1000 to 10000	< 100	< 1000			CC(C)c1cnn2c(NCc3cccc4c3N(C)C(=O)CC4)nc(N3CCC(N)CC3)nc12 [Compound 69]	B (B=less than 200 fold, but greater than 20 fold)	B (B=less than 200 fold, but greater than 20 fold)	C (C=less than 20 fold)
< 100		> 1000	100 to 1000	1000 to 10000	> 1000	< 1000			CC(C)c1cnn2c(NCc3ccccc3NC(=O)c3ccccc3)nc(N3CCC(N)CC3)nc12 [Compound 87]	A (A=greater than 200 fold)	A (A=greater than 200 fold)	B (B=less than 200 fold, but greater than 20 fold)
	< 1000			1000 to 10000		1000 to 10000			CC(C)c1cnn2c(NCc3ccccc3-n3cc4cc(Br)ccc4n3)nc(N3CCC(N)CC3)nc12 [Compound 100]			
< 100		> 1000	> 1000	1000 to 10000	> 1000	1000 to 10000			CC(=O)NC1CCN(c2nc(NCc3ccccc3-c3cc4ccccc4[nH]3)n3ncc(C(C)C)c3n2)CC1 [Compound 111]	B (B=less than 200 fold, but greater than 20 fold)	B (B=less than 200 fold, but greater than 20 fold)	C (C=less than 20 fold)
100 to 1000		> 1000	> 1000	1000 to 10000	> 1000	1000 to 10000			CC(C)c1cnn2c(NCc3ccccc3-c3cc4ccccc4[nH]3)nc(N3CCC(C(N)=O)CC3)nc12 [Compound 117]	A (A=greater than 200 fold)	A (A=greater than 200 fold)	B (B=less than 200 fold, but greater than 20 fold)
< 100	< 1000	100 to 1000	100 to 1000		100 to 1000	< 1000	< 1000	< 1000	CC(C)c1cnn2c(NCc3ccccc3-n3cc4cc(C(N)=O)ccc4n3)nc(N3CCC(N)CC3)nc12 [Compound 146]	A (A=greater than 200 fold)	A (A=greater than 200 fold)	B (B=less than 200 fold, but greater than 20 fold)
< 100	< 1000	> 1000	100 to 1000		> 1000	1000 to 10000	< 1000	< 1000	CC(C)c1cnn2c(NCc3ccccc3-n3cc4cc(C(=O)N5CCCC5)ccc4n3)nc(N3CCC(N)CC3)nc12 [Compound 147]	A (A=greater than 200 fold)	B (B=less than 200 fold, but greater than 20 fold)	B (B=less than 200 fold, but greater than 20 fold)
